PMC5859971 (Genes & Development, 2018)
“And” between values parts separate entries of the source, which are not always exact repeats. Identical values can stand only once. Like-named read-outs stand apart in the source and are kept apart here.

Assays:
HCT116-PHF5A^WT = assay: CellTiter-Glo viability assay, HCT116-PHF5A^WT; type: cell-based, human; conditions: for GI50: Homo sapiens, 72 h, read-out: HCT116-PHF5A^WT GI50
Description: (§1) To further validate the pose of the compound, we analyzed the activity of several related chemical probes using the SPA with the purified protein complex ([Teng et al. 2017]). The SPA is formatted as a competition assay in which the purified protein complex is captured on a bead containing scintillant, incubated with test compounds over a dose response, and then competed off with a fixed concentration of ^3H-Plad compound. IC50 curves are then measured from the resulting light emitted from the bead (Table 1; Supplemental Fig. S4). In addition, we tested the probes in viability assays in two engineered cell lines: HCT116-PHF5A^WT and the sensitization line HCT116-PHF5A^R38C (Table 1; Supplemental Fig. S5). This facilitates profiling of chemical probe activity in the PHF5A background (wild type and mutant). The relative expression levels were further confirmed by Western blot analysis (Supplemental Fig. S5).
(§2) Parental HCT116 cells were obtained from American Type Culture Collection and cultured in RPMI 1640 medium supplemented with 10% fetal bovine serum. PHF5A R38C was generated using the Agilent QuikChange II kit and was cloned into pLenti6.3/V5 as described ([Teng et al. 2017]). The verified clone was used for lentivirus production using X293T cells. Parental HCT116 cells were infected with virus and selected with blasticidin S at 10 µg mL^−1 for 1 wk. Engineered cell lines were subsequently maintained in the absence of antibiotic. Transgene expression was confirmed by Western blot analysis (Supplemental Fig. S4). For Western blot analysis, α-PHF5A rabbit polyclonal antibody (Protein Tech, 15554-1-AP) was used at 1:1000 dilution in LI-COR buffer, and anti-rabbit secondary antibody (LI-COR) was used at 1:5000 dilution. The Western blot was imaged using an Odyssey V3.0 imager (LI-COR). For CellTiter-Glo analysis of the wild-type and PHF5A^R38C cell lines, 500 cells were seeded in each well of a 384-well plate 1 d before compound addition. Dose response was measured in 11-point serial dilutions with a top dose of 10 µM. The percentage of DMSO was controlled throughout, and a DMSO-only control was included. Seventy-two hours after dosing, CellTiter-Glo reagent was added, incubated, and assayed on an EnVision multilabel reader (PerkinElmer). Luminescence values from each treatment were normalized to the average value of the respective DMSO control. The dose response curve plots were generated in GraphPad Prism, and GI50 values were calculated from nonlinear regression analysis. GI50 values for the wild-type and R38C mutant cell lines were plotted in Spotfire.

[1] = tested on: splicing of Ad2.1 pre-mRNA substrate; assay: In vitro splicing (IVS) assay, Ad2.1 substrate, HeLa S3 nuclear extracts, RT-qPCR; type: biochemical, human; conditions: Ad2.1 (strong) substrate
Text: (§3) A substrate competitive mechanism of action (MOA) would predict that weaker pre-mRNA substrates would be easier to inhibit than stronger substrates. To date, it has not been possible to evaluate substrate competition using traditional steady-state conditions because splicing reactions are thought to be single-turnover events in vitro, and therefore it is not possible to measure a KM for the pre-mRNA. […] Specifically, we engineered the strong in vitro splicing substrate Ad2.1 by enhancing the U2 snRNP base-pairing around the BPA found in the Ad2 substrate. We then engineered a weaker substrate, Ad2.2, by adding a decoy BPS lacking an extrahelical adenosine (Ad2.2) (Fig. 5A; Supplemental Vector NTI files; [Corrionero et al. 2011]). […] We then evaluated E7107 and several chemical probes to better understand their mechanism.
(§4) Figure 5. […] (A) Base-pairing logic for IVS substrates. (BPRS) Branch point recognition sequence in U2 snRNA; (BPS) the BPS in the pre-mRNA. The Ad2 gene BPS sequence (UACUUAU) was modified (UACUAAU) to strengthen the U2 base-pairing interactions flanking the BPA, leading to the Ad2.1 substrate (BPA in red). The Ad2.2 sequence has the same BPS as Ad2 but also contains a 5′ decoy BPS sequence (lacking an extrahelical adenine) that can base-pair with the BPRS. The decoy BPS and suboptimal BPS overlap, which gives U2 at least two possibilities for possible base pairing, as indicated. […] (B) RT-qPCR time-course data showing product formation over time. […] (C) Representative IC50 curves for compound 6 using the two different substrates (Ad2.1 and Ad2.2).
(§5) The Ad2-derived ([Pellizzoni et al. 1998]) sequence was cloned into the pGEM-3Z vector (Promega) using 5′ EcoRI and 3′ XbaI restriction sites. The Ad2 variant (Ad2.2) ([Seiler et al. 2018]) was cloned into pcDNA3.1(+) vector (Promega) using the same restriction sites. The plasmids were linearized using XbaI and used as DNA templates in the in vitro transcription reactions. The FtzΔi intron-less plasmid ([Luo and Reed 1999]) was linearized using EcoRI. All RNAs were in vitro transcribed and then purified using MegaScript T7 and MegaClear kits, respectively (Invitrogen). For splicing reactions used with the Ad2.2 substrate, […] reactions were prepared using 8 µg of nuclear extracts prepared from HeLa S3, a saturating excess of 2 ng of pre-mRNA substrate, 0.2 ng of FTZΔi, and varying concentrations of compounds or DMSO.

HCT116-PHF5A^R38C = assay: CellTiter-Glo viability assay, HCT116-PHF5A^R38C; type: cell-based, human; conditions: for GI50: Homo sapiens, 72 h, read-out: HCT116-PHF5A^R38C GI50
Description: as §1, §2

[2] = tested on: splicing of Ad2.2 pre-mRNA substrate; assay: In vitro splicing (IVS) assay, Ad2.2 substrate, HeLa S3 nuclear extracts, RT-qPCR; type: biochemical, human; conditions: for inhibition of strong and weak IVS substrates: Ad2.1 and Ad2.2 substrates compared; for IC50: Ad2.2 (weak) substrate
Text: as §3, §4, §5

[3] = target: T1, wild-type mini-SF3b complex (4-protein SF3b complex) (Homo sapiens, UniProt O75533+Q7RTV0); assay: Scintillation proximity assay (SPA) competition with 3H-labeled pladienolide probe; type: binding; conditions: for activity after truncating the diene tail: assays of Table 1
T1 construct: SF3B1 was limited to the HEAT repeat domain from residues 454–1304 and cloned in-frame with an N-terminal Flag tag; Truncated SF3B1 and full-length SF3B3, PHF5A, and SF3B5 were synthesized; made in house; host or cells: SF21 insect cells (baculovirus, pFastBac1)
T1 sequence (Q7RTV0 whole entry, the tested form may be a part): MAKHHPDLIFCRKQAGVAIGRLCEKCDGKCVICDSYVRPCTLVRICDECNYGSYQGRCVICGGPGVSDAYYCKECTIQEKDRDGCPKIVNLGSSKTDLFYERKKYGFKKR
T1 sequence (Q15393 whole entry, further chain, the tested form may be a part): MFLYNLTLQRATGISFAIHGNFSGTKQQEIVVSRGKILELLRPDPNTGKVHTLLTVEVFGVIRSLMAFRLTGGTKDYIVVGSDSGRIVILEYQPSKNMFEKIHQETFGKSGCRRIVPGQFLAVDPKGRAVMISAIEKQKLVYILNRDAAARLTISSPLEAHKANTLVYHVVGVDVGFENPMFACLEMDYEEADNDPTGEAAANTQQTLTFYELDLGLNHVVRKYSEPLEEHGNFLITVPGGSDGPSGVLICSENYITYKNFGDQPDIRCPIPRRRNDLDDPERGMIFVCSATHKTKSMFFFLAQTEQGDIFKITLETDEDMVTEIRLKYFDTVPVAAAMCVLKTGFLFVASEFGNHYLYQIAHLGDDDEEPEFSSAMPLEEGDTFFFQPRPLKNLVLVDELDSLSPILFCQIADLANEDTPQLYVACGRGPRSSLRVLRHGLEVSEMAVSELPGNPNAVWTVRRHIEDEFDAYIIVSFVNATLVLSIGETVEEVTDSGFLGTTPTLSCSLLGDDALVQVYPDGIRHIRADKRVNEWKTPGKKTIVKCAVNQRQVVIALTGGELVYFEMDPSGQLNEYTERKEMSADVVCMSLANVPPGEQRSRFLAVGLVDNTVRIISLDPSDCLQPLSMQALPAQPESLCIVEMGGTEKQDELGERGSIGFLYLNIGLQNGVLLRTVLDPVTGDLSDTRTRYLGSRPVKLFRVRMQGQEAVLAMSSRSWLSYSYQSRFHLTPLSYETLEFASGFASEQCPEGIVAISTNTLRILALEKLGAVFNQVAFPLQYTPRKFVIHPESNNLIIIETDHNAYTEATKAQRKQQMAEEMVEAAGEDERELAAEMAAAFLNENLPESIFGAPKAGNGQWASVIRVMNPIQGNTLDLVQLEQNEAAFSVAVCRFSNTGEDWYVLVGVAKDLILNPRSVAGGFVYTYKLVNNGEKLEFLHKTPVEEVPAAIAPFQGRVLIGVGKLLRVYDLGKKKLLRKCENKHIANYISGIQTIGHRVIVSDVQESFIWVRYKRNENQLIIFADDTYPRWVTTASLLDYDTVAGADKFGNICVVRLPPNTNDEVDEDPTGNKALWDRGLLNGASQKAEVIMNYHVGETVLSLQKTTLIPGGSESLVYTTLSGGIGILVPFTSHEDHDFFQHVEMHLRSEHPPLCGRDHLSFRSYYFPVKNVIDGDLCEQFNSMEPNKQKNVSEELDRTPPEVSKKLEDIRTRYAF
T1 sequence (O75533 454-1304): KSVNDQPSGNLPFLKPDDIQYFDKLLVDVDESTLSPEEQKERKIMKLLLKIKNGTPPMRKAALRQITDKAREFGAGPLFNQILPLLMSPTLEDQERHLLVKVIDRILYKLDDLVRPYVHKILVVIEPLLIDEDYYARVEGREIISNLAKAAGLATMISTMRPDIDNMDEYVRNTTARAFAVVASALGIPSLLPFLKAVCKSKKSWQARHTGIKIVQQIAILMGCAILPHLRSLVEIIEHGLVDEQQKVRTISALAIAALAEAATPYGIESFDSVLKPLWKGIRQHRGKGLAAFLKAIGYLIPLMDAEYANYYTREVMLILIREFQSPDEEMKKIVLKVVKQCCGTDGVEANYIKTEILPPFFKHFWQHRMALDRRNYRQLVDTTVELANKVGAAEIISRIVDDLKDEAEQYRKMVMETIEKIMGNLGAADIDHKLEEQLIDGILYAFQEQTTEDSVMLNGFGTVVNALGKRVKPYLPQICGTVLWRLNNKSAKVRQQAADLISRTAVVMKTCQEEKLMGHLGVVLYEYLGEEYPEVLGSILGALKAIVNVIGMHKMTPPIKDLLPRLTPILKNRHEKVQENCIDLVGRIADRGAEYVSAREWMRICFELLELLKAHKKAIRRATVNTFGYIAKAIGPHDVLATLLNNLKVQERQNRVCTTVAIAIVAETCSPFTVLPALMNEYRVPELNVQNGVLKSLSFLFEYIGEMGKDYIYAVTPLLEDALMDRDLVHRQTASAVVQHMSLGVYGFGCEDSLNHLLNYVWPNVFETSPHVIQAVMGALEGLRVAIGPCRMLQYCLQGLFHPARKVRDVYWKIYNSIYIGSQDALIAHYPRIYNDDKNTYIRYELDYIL
T1 sequence (Q9BWJ5 whole entry, further chain, the tested form may be a part): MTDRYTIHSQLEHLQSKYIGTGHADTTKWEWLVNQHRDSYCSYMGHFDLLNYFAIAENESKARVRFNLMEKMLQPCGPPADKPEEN
Description: as §1
Batch immobilization of the anti-Flag antibody (Sigma) to the anti-mouse PVT SPA scintillation beads (PerkinElmer) was prepared as follows. For every 1.5 mg of beads, 10 µg of antibody was prepared in 150 µL of PBS. The antibody–bead mixture was incubated for 30 min at room temperature and centrifuged at 18,000g for 5 min. One-hundred-fifty microliters of PBS was used to resuspend every 1.5 mg of antibody–bead mixture. The aforementioned mini-SF3b complex was tested for ^3H-labeled pladienolide probe binding ([Kotake et al. 2007]). One-hundred microliters of binding reactions was prepared with […] of bead slurry and 0 or 50 nM protein in buffer (20 mM HEPES at pH 8, 200 mM KCl, 5% glycerol). The mixture was incubated for 30 min, and varying concentrations of ^3H-labeled pladienolide probe were added. The mixture was incubated for 30 min, and luminescence signals were read using a MicroBeta2 plate counter (PerkinElmer). Compound competition studies were performed with the wild-type mini-SF3b complex. One-hundred microliters of binding reactions was prepared with 50 µL of bead slurry, 25 nM protein in buffer, and compounds at varying concentrations. After 30 min of preincubation, 10 nM ^3H-labeled pladienolide probe was added. The reactions were incubated for 30 min, and luminescence signals were read.
The Scintillation proximity assay (SPA) competition assay with 10 nM 3H tracer for different Pladienolide analogs binding to the 4-protein SF3b complex. Error bars represent STD for 2 or more measurements. Red = E7107, Orange = PladD, Purple = PladF, Green = compound 2, red = compound 3, gray = compound 4, black = compound 5, blue = compound 6. […]

[4] = tested on: HCT116 cell lines overexpressing PHF5A WT and mutants; assay: Viability curves in HCT116 cell lines overexpressing PHF5A WT and mutants; type: cell-based, human
Description: Parental HCT116 cells were obtained from American Type Culture Collection and cultured in RPMI 1640 medium supplemented with 10% fetal bovine serum. […] Parental HCT116 cells were infected with virus and selected with blasticidin S at 10 µg mL^−1 for 1 wk. Engineered cell lines were subsequently maintained in the absence of antibiotic. Transgene expression was confirmed by Western blot analysis (Supplemental Fig. S4). For Western blot analysis, α-PHF5A rabbit polyclonal antibody (Protein Tech, 15554-1-AP) was used at 1:1000 dilution in LI-COR buffer, and anti-rabbit secondary antibody (LI-COR) was used at 1:5000 dilution. The Western blot was imaged using an Odyssey V3.0 imager (LI-COR). For CellTiter-Glo analysis of the wild-type and PHF5A^R38C cell lines, 500 cells were seeded in each well of a 384-well plate 1 d before compound addition. Dose response was measured in 11-point serial dilutions with a top dose of 10 µM. The percentage of DMSO was controlled throughout, and a DMSO-only control was included. Seventy-two hours after dosing, CellTiter-Glo reagent was added, incubated, and assayed on an EnVision multilabel reader (PerkinElmer). Luminescence values from each treatment were normalized to the average value of the respective DMSO control. The dose response curve plots were generated in GraphPad Prism, and GI50 values were calculated from nonlinear regression analysis. […]

[5] = competition with 10 nM 3H-labeled pladienolide probe, 25 nM protein, read-out: SPA IC50

CCC(O)C(C)C1OC1CC(C)(O)C=CC=C(C)C1OC(=O)CC(O)CCC(C)(O)C(OC(=O)N2CC[N+](C)(C3CCCCCC3)CC2)C=CC1C (centres unmarked) [Compound 1]
GI50 (HCT116-PHF5A^WT; CellTiter-Glo): > 400 nM | IC50 [1]: 177 nM and 184 nM | GI50 (HCT116-PHF5A^R38C; CellTiter-Glo): > 400 nM | inhibition of strong and weak IVS substrates [2]: inhibit both the strong and weak substrates equally well | IC50 [2]: 184 nM and 177 nM

CCC(O)C(C)C1OC1CC(C)(O)C=CC=C(C)C1OC(=O)CC(O)CCC(C)(O)C(OC(=O)N2CC[N+](Cc3ccccc3)(C3CCCCCC3)CC2)C=CC1C (centres unmarked) [Compound 2]
GI50 (HCT116-PHF5A^WT): > 400 nM | IC50 [3, 5]: 236 nM | GI50 (HCT116-PHF5A^R38C): 259 nM

CCC(O)C(C)C1OC1CC(C)(O)C=CC=C(C)C1OC(=O)CC(OC(=O)C2CC2)CCC(C)(O)C(OC(=O)N2CCN(C3CCCCCC3)CC2)C=CC1C (centres unmarked) [Compound 3]
GI50 (HCT116-PHF5A^WT; CellTiter-Glo): > 400 nM | IC50 [3, 5]: > 4000 nM | activity in the SPA binding assay ([3]; relative to E7107): total loss of activity | IC50 [1]: > 25000 nM | GI50 (HCT116-PHF5A^R38C; CellTiter-Glo): 243 nM | IC50 [2]: 966 nM

C/C(=C\C(=O)O)[C@H]1OC(=O)C[C@H](O)CC[C@@](C)(O)[C@@H](OC(=O)N2CCN(C3CCCCCC3)CC2)/C=C/[C@@H]1C [Compound 4]
GI50 (HCT116-PHF5A^WT; CellTiter-Glo): > 400 nM | activity after truncating the diene tail [3]: completely eliminates activity | IC50 [3, 5]: > 4000 nM | IC50 [1]: > 25000 nM | GI50 (HCT116-PHF5A^R38C; CellTiter-Glo): > 400 nM | IC50 [2]: > 25000 nM

C/C(=C\CO)[C@H]1OC(=O)C[C@H](O)CC[C@@](C)(O)[C@@H](OC(=O)N2CCN(C3CCCCCC3)CC2)/C=C/[C@@H]1C [Compound 5]
GI50 (HCT116-PHF5A^WT; CellTiter-Glo): > 400 nM | activity after truncating the diene tail [3]: completely eliminates activity | IC50 [3, 5]: > 4000 nM | IC50 [1]: > 25000 nM | GI50 (HCT116-PHF5A^R38C; CellTiter-Glo): > 400 nM | IC50 [2]: 16000 nM

C/C(=C\C=C\[C@@H](C)c1ccccn1)[C@H]1OC(=O)C[C@H](O)CC[C@@](C)(O)[C@@H](OC(=O)N2CCN(C3CCCCCC3)CC2)/C=C/[C@@H]1C [Compound 6]
GI50 (HCT116-PHF5A^WT; CellTiter-Glo): 34 nM | loss of potency relative to E7107 in viability assays (HCT116-PHF5A^WT): ~10 fold | IC50 [3, 5]: 376 nM | loss of potency relative to E7107 in the SPA ([3]; relative to E7107): sixfold | IC50 [1]: > 25000 nM | GI50 (HCT116-PHF5A^R38C; CellTiter-Glo): 11 nM | inhibition of strong and weak IVS substrates [2]: inhibit only the weak substrate | IC50 [2]: 23 nM

CCC(O)C(C)C1OC1CC(C)(O)C=CC=C(C)C1OC(=O)CC(O)CCC(C)(O)C(OC(C)=O)C=CC1C (centres unmarked) [Plad D]
GI50 (HCT116-PHF5A^WT): 26 nM | IC50 [3]: 97 nM | activity in the SPA binding assay [3]: nearly equipotent to E7107 | PHF5A^R38C sensitization phenotype (words) (HCT116-PHF5A^R38C): did not observe this trend | GI50 (HCT116-PHF5A^R38C): 18 nM

CCC(O)C(C)C1OC1CC(C)(O)C=CC=C(C)C1OC(=O)CC(O)CCC(C)(O)C(O)C=CC1C (centres unmarked) [Plad F]
GI50 (HCT116-PHF5A^WT; CellTiter-Glo): > 400 nM | loss of potency relative to E7107 in viability assays (HCT116-PHF5A^WT): > 200 fold | IC50 [3, 5]: 1500 nM | loss of potency relative to E7107 in the SPA ([3]; relative to E7107): 20 fold | IC50 [1]: > 25000 nM | GI50 (HCT116-PHF5A^R38C; CellTiter-Glo): > 400 nM | inhibition of strong and weak IVS substrates [2]: inhibit only the weak substrate | IC50 [2]: 171 nM

CC(C)C[C@H](NC(=O)[C@H](Cc1ccccc1)NC(=O)c1cnccn1)B(O)O [bortezomib]
killing of cell lines irrespective of PHF5A mutation status [4]: kills all of the cell lines at the same concentration | PHF5A^R38C sensitization phenotype (words) (HCT116-PHF5A^R38C; R38C vs wild type): lie near the line of unity

CO[C@H]([C@@H](C)[C@H]1O[C@]1(C)C[C@H](C)/C=C/C=C(\C)[C@H]1O[C@@H](CC(=O)O)CC[C@@H]1C)[C@@H](C)O [herboxidiene]
PHF5A^R38C sensitization phenotype (words) (HCT116-PHF5A^R38C; R38C vs wild type): not and did not exhibit this sensitization phenotype and lie near the line of unity

CO[C@]1(C)C[C@@]2(CO2)[C@H](O)[C@@H](/C=C/C(C)=C/C[C@@H]2O[C@H](C)[C@H](NC(=O)/C=C\[C@H](C)OC(C)=O)C[C@@H]2C)O1 [spliceostatin]
PHF5A^R38C sensitization phenotype (words) (HCT116-PHF5A^R38C; R38C vs wild type): did not exhibit this sensitization phenotype | PHF5A^R38C sensitization phenotype (words) (HCT116-PHF5A^R38C; R38C vs wild type, listed as Spliceostatin): lie near the line of unity

pladienolide B [PladB]
PHF5A^R38C sensitization phenotype (words) (HCT116-PHF5A^R38C; R38C vs wild type): did not observe this trend
